#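 Values below derive from 48-hour exposures of cells grown in 96-well plates, with endpoints linearly interpolated between the two concentrations bracketing the appropriate inhibition level. At the GI50, growth is halved.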 Activity calls are given as the source filed them. Cut-off read from the data, not from the text of the source: active = GI50 up to about 1.1 µM and inactive = higher.
# What was measured:
# Experiment in all cases: NCI-60 cell line screen, 48 h
# HL-60 = test system: HL-60
# SN12C = test system: SN12C
# RPMI-8226 = test system: RPMI-8226
# SF-268 = test system: SF-268
# HOP-62 = test system: HOP-62
# K562 = test system: K562
# MCF7 = test system: MCF7
# U-251 = test system: U-251
# PC-3 = test system: PC-3
# OVCAR-5 = test system: OVCAR-5
# OVCAR-8 = test system: OVCAR-8
# HCT-116 = test system: HCT-116
# NCI-H522 = test system: NCI-H522
# MOLT-4 = test system: MOLT-4
# SNB-75 = test system: SNB-75
# SF-295 = test system: SF-295
# TK-10 = test system: TK-10
# SK-MEL-2 = test system: SK-MEL-2
# UACC-257 = test system: UACC-257
# KM12 = test system: KM12
# OVCAR-3 = test system: OVCAR-3
# NCI-H226 = test system: NCI-H226
# Hs-578T = test system: Hs-578T
# NCI-H460 = test system: NCI-H460
# HT-29 = test system: HT-29
# ACHN = test system: ACHN
# EKVX = test system: EKVX
# SF-539 = test system: SF-539
# 786-0 = test system: 786-0
# HCT-15 = test system: HCT-15
# CCRF-CEM = test system: CCRF-CEM
# Malme-3M = test system: Malme-3M
# HCC 2998 = test system: HCC 2998
# NCI-H23 = test system: NCI-H23
# SR = test system: SR
# SK-MEL-28 = test system: SK-MEL-28
# DU-145 = test system: DU-145
# MDA-MB-435 = test system: MDA-MB-435
# SK-MEL-5 = test system: SK-MEL-5
# HOP-92 = test system: HOP-92
# MDA-MB-231 = test system: MDA-MB-231
# A549 = test system: A549
# COLO 205 = test system: COLO 205
# UO-31 = test system: UO-31
# LOX IMVI = test system: LOX IMVI
# CAKI-1 = test system: CAKI-1
# MDA-N = test system: MDA-N
# M14 = test system: M14
# OVCAR-4 = test system: OVCAR-4
# IGROV-1 = test system: IGROV-1
# A498 = test system: A498
# NCI/ADR-RES = test system: NCI/ADR-RES
# SW-620 = test system: SW-620
# SNB-19 = test system: SNB-19
# RXF 393 = test system: RXF 393
# SK-OV-3 = test system: SK-OV-3
# UACC-62 = test system: UACC-62
smiles,measurement,setting,value
O=C(NCCCn1ccnc1[N+](=O)[O-])C(=O)NCCCn1ccnc1[N+](=O)[O-],GI50,HL-60,> 100 µM (inactive)
same,GI50,SN12C,90.6 µM (inactive)
same,GI50,RPMI-8226,> 100 µM (inactive)
same,GI50,SF-268,> 100 µM (inactive)
same,GI50,HOP-62,> 100 µM (inactive)
same,GI50,K562,> 100 µM (inactive)
same,GI50,MCF7,> 100 µM (inactive)
same,GI50,U-251,> 100 µM (inactive)
same,GI50,PC-3,> 100 µM (inactive)
same,GI50,OVCAR-5,> 100 µM (inactive)
same,GI50,OVCAR-8,69.2 µM (inactive)
same,GI50,HCT-116,> 100 µM (inactive)
same,GI50,NCI-H522,> 100 µM (inactive)
same,GI50,MOLT-4,> 100 µM (inactive)
same,GI50,SNB-75,> 100 µM (inactive)
same,GI50,SF-295,> 100 µM (inactive)
same,GI50,TK-10,31.3 µM (inactive)
same,GI50,SK-MEL-2,45.2 µM (inactive)
same,GI50,UACC-257,> 100 µM (inactive)
same,GI50,KM12,> 100 µM (inactive)
same,GI50,OVCAR-3,> 100 µM (inactive)
same,GI50,NCI-H226,> 100 µM (inactive)
same,GI50,Hs-578T,> 100 µM (inactive)
same,GI50,NCI-H460,> 100 µM (inactive)
same,GI50,HT-29,> 100 µM (inactive)
same,GI50,ACHN,> 100 µM (inactive)
same,GI50,EKVX,> 100 µM (inactive)
same,GI50,SF-539,> 100 µM (inactive)
same,GI50,786-0,> 100 µM (inactive)
same,GI50,HCT-15,> 100 µM
same,GI50,CCRF-CEM,> 100 µM (inactive)
same,GI50,Malme-3M,> 100 µM (inactive)
same,GI50,HCC 2998,> 100 µM (inactive)
same,GI50,NCI-H23,> 100 µM (inactive)
same,GI50,SR,> 100 µM (inactive)
same,GI50,SK-MEL-28,> 100 µM (inactive)
CCCCOCn1c(=O)[nH]c(=O)c2cc(Br)ccc21,GI50,HL-60,42.5 µM (inactive)
same,GI50,DU-145,> 100 µM (inactive)
same,GI50,SN12C,48.1 µM (inactive)
same,GI50,MDA-MB-435,68.2 µM (inactive)
same,GI50,SK-MEL-5,33.1 µM (inactive)
same,GI50,K562,51.8 µM (inactive)
same,GI50,HOP-92,51.1 µM (inactive)
same,GI50,MDA-MB-231,33.8 µM (inactive)
same,GI50,A549,48.2 µM (inactive)
same,GI50,COLO 205,72.1 µM (inactive)
same,GI50,MCF7,42.5 µM (inactive)
same,GI50,U-251,95.1 µM (inactive)
same,GI50,PC-3,35.2 µM (inactive)
same,GI50,UO-31,18.5 µM (inactive)
same,GI50,LOX IMVI,58.5 µM (inactive)
same,GI50,OVCAR-5,> 100 µM (inactive)
same,GI50,CAKI-1,20.8 µM (inactive)
same,GI50,MDA-N,55.2 µM (inactive)
same,GI50,OVCAR-8,31.1 µM (inactive)
same,GI50,M14,87.1 µM (inactive)
same,GI50,HCT-116,38.5 µM (inactive)
same,GI50,OVCAR-4,49.3 µM (inactive)
same,GI50,MOLT-4,44.1 µM (inactive)
same,GI50,IGROV-1,40.6 µM (inactive)
same,GI50,SNB-75,39.7 µM (inactive)
same,GI50,SF-295,54.6 µM (inactive)
same,GI50,TK-10,53.5 µM (inactive)
same,GI50,SK-MEL-2,40.2 µM (inactive)
same,GI50,A498,54.6 µM (inactive)
same,GI50,UACC-257,43.9 µM (inactive)
same,GI50,KM12,36.5 µM (inactive)
same,GI50,OVCAR-3,45.9 µM (inactive)
same,GI50,NCI-H226,12.6 µM (inactive)
same,GI50,HT-29,23.4 µM (inactive)
same,GI50,NCI/ADR-RES,19.1 µM (inactive)
same,GI50,ACHN,14.3 µM (inactive)
same,GI50,EKVX,22.6 µM (inactive)
same,GI50,SF-539,> 100 µM (inactive)
same,GI50,SW-620,> 100 µM (inactive)
same,GI50,SNB-19,33.2 µM (inactive)
same,GI50,786-0,53.3 µM (inactive)
same,GI50,RXF 393,42.3 µM (inactive)
same,GI50,HCT-15,44.2 µM
same,GI50,SK-OV-3,> 100 µM (inactive)
same,GI50,CCRF-CEM,59.4 µM (inactive)
same,GI50,HCC 2998,> 100 µM (inactive)
same,GI50,UACC-62,42.5 µM (inactive)
same,GI50,SR,46.2 µM (inactive)
same,GI50,SK-MEL-28,> 100 µM (inactive)
